# Test results published in patent US10537561B2 (Novartis AG, priority 2011, dated 2020).
# How the values were obtained:
# PDGFR-β = PDGFR-β (Homo sapiens, UniProt P09619); assay: PDGFR-β inhibition; format: biochemical; settings: read-out: PDGFR-β IC-50
# CSF-1R = CSF-1R (Homo sapiens, UniProt P07333); assay: CSF-1R inhibition, biochemical assay
# [1] = system: glioma in RCAS-PDGF-B-HA/Nestin-Tv-a; Ink4a/Arf−/− mice; assay: Short-term trial, tumor volume by MRI; format: in vivo, mouse
# Protocol: Tumor volume in the RCAS-PDGF-B-HA/Nestin-Tv-a; Ink4a/Arf^−/− mice was determined by MRI, and mice were added to the trial when this was at least 4.5 mm^3 or greater. […] MRI scans were performed on the day before treatment was initiated, at the mid-point of the treatment, and at the day before the end of the trial period.
# The vehicle control, 20% captisol, was processed in the same manner.
# To determine tumor volume, regions of interest (ROI) were circumscribed on T2 weighted images and their corresponding area in mm^2 was multiplied by the slice height of 0.7 mm. The total tumor volume is the sum of the ROI volume in each slice, and the volume for the first and last slice in which the tumor appear is halved to approximate the volume of a trapezoid. When tumor volume was in the range of 4.5-40 mm^3, animals were randomly assigned to treatment groups. […] A size-matched vehicle treated cohort was not included for this cohort having the larger starting tumor burden because these mice would not have been able to survive to the trial endpoint.
# [2] = system: mouse GBM cell cultures (GBM1-4); assay: Mouse glioma cell line proliferation (MTT); format: cell-based
# Protocol: (§1) For neurosphere formation the cell pellet was resuspended in neurosphere media consisting of mouse NSC Basal Media, NSC proliferation supplements, 10 ng/ml EGF, 20 ng/ml basic-FGF and 1 mg/ml Heparin (Stem Cell Technologies). Fresh media was added every 72 hours for 2 weeks. Primary neurospheres were collected, mechanically disaggregated to a single cell suspension and propagated by serial passaging. To generate glioma cell lines, secondary neurospheres were dissociated to single cell suspensions and cultivated in DMEM+10% FBS as a monolayer. Multiple glioma cell lines were derived from independent mice, denoted GBM1-4 herein. Glioma cells were infected with a pBabe-H2B-mCherry construct as described previously (O. Florey, et al., Nat Cell Biol 13, 1335 (2011)).
# (§2) Cell growth rate was determined using the MTT cell proliferation kit (Roche). […] Media was changed every 48 hours. BMDM and CRL-2467 cells were supplemented with 10 ng/ml and 30 ng/ml recombinant mouse CSF-1 respectively unless otherwise indicated. 10 μl of MTT labeling reagent was added to each well and then incubated for 4 hours at 37° C., followed by the addition of 100 μl MTT solubilization reagent overnight. The mixture was gently resuspended and absorbance was measured at 595 nm and 750 nm on a spectraMax 340pc plate reader (Molecular Devices).
# [3] = system: glioma in RCAS-PDGF-B-HA/Nestin-Tv-a; Ink4a/Arf−/− mice; assay: Long-term survival trial in glioma model; format: in vivo, mouse
# [4] = system: CSF-dependent cell proliferation; assay: CSF-dependent cell proliferation; format: cell-based; settings: read-out: CSF-dependent cell proliferation IC-50
# [5] = system: neurospheres derived from mouse RCAS-PDGF-B-HA/Nestin-Tv-a; Ink4a/Arf−/− GBMs; assay: Secondary neurosphere formation assay; format: cell-based
# Protocol: as §1
# Media was changed every 48 hours. Secondary neurosphere formation was assayed by counting the number of neurospheres obtained after 2 weeks.
# [6] = system: Bone marrow-derived macrophages (BMDMs); assay: BMDM proliferation/survival (MTT); format: cell-based, mouse
# Protocol: as §2
# [7] = system: several hundred kinases in the Ambit kinase array; assay: Ambit kinase array screen; format: binding; settings: lower than 50% only against CSF-1R, PDGFRα and PDGFRβ
# [8] = target: >200 miscellaneous kinases; assay: Kinase selectivity panel; format: biochemical; settings: read-out: IC50 values for most of >200 miscellaneous kinases
# [9] = system: glioma in RCAS-PDGF-B-HA/Nestin-Tv-a; Ink4a/Arf−/− mice; assay: Histologic analyses of tumors from short-term trial; format: in vivo, mouse; settings: for Apoptosis (% CC3+) / Macrophages (% CD68+) / Total DAPI+ Cells / Tumor Cells (% Olig2+) / Phagocytic Capacity / Vasculature (CD31 MVD): vs vehicle
# Protocol: The analyses were performed on tissues from the short-term trial (see Example 5), so that tumors from the different treatment groups could be compared at the same defined endpoint. Tumor cell density was examined using the oligodendrocyte marker Olig2, which has previously been used to identify glioma cells. […] (FIG. 6A).
# To isolate tissues for snap freezing in liquid nitrogen, mice were euthanized by carbon dioxide asphyxiation or fully anesthetized with avertin (2,2,2-tribromoethanol, Sigma) and cervically dislocated prior to tissue harvest. For flow cytometry, mice were fully anesthetized with avertin and transcardially perfused with 20 ml of PBS. The brain was then isolated and the tumor macrodissected from the surrounding normal tissue. For proliferation analysis, mice were injected intraperitoneally with […] of bromodeoxyuridine (BrdU; Sigma) 2 hours prior to sacrifice. To isolate tissues for frozen histology, mice were fully anesthetized with avertin, transcardially perfused with 10 ml of PBS, followed by 10 ml of 4% paraformaldehyde in PBS (PFA). The brain was postfixed in PFA overnight at 4° C. while other tissues were cryopreserved in 30% sucrose at 4° C. After post-fixation, the brain was then transferred to 30% sucrose and incubated at 4° C. until the brain was fully equilibrated and sank to the bottom of the tube (typically 2 to 3 days). All tissues were then embedded in OCT (Tissue-Tek) and 10 μm cryostat tissue sections were used for all subsequent analysis.
# For immunofluorescence, 10 μm thick frozen sections were thawed and dried at room temperature and then washed in PBS. For the standard staining protocol, tissue sections were blocked in 0.5% PNB in PBS for at least 1 hour at room temperature or up to overnight at 4° C., followed by incubation in primary antibody in 0.25% PNB for 2 hours at room temperature or overnight at 4° C. Sections were then washed in PBS and incubated with the appropriate fluorophore-conjugated secondary antibody (Molecular Probes) at a dilution 1:500 in 0.25% PNB for 1 hour at room temperature. After washing in PBS, tissue sections were counterstained with DAPI (5 mg/ml stock diluted 1:5000 in PBS) for 5 minutes prior to mounting with ProLong Gold Antifade mounting media (Invitrogen).
# For angiogenesis and proliferation analysis, tissue sections were first subjected to citrate buffer based antigen retrieval by submerging in antigen unmasking solution (0.94% v/v in distilled water; Vector Laboratories) and microwaving for 10 minutes on half power, followed by cooling to room temperature for at least 30 minutes. For angiogenesis analysis, tissues were then washed in PBS and blocked with mouse Ig blocking reagent (Vector Laboratories) according to the manufacturer's instructions for 1 hour at room temperature. For proliferation analysis, after antigen retrieval, tissue sections were incubated with 2M HCl for 15 minutes at room temperature to denature DNA and then in neutralizing 0.1M sodium borate buffer (pH 8.5) for 5 minutes. After PBS washes, the rest of the staining was performed according to the standard protocol.
# For staining for phagocytosis analysis, 10 μm thick frozen sections were thawed and dried at room temperature and then washed in PBS. Tissue sections were blocked in 0.5% PNB in PBS for at least 1 hour at room temperature, followed by incubation in rabbit anti-cleaved caspase-3 primary antibody diluted 1:500 in 0.5% PNB overnight at 4° C. The next day, slides were washed 6 times for 5 minutes in PBS prior to incubation with goat-anti-rabbit Alexa568 secondary antibody (1:500 in 0.5% PNB) for 1 hour at room temperature. Tissue sections were then washed 6 times for 5 minutes in PBS and blocked overnight at 4° C. in a new buffer of 5% donkey serum, 3% bovine serum albumin, and 0.5% PNB in PBS. […]
# Sequence of PDGFR-β (P09619 33-1106, species assumed): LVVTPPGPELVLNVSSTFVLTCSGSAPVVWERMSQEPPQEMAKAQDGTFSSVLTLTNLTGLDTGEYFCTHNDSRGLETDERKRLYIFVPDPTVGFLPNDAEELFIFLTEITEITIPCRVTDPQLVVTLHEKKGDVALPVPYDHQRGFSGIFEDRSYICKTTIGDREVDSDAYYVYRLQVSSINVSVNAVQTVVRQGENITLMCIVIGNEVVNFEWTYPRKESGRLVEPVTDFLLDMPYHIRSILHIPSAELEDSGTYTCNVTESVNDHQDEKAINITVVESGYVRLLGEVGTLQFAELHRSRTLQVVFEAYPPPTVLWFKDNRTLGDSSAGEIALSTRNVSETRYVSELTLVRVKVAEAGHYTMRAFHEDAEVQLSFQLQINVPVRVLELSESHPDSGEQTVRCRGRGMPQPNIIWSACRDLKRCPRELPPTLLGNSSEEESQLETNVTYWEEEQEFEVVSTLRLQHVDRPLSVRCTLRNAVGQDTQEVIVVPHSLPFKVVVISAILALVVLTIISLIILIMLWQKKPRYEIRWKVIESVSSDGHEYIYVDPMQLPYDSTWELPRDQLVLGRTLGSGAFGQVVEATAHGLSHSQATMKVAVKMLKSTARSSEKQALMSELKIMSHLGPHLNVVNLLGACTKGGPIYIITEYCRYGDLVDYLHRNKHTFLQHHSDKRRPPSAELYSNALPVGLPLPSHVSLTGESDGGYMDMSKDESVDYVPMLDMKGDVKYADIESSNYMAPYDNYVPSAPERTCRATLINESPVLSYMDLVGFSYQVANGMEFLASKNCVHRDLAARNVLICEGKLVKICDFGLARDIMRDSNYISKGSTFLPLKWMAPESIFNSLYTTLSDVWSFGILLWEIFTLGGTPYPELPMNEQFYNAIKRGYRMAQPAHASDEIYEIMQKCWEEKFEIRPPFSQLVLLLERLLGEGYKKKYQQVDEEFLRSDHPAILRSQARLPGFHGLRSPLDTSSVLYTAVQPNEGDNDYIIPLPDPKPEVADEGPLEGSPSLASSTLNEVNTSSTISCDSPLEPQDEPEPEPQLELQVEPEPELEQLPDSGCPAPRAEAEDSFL
# Sequence of CSF-1R (P07333 20-972, species assumed): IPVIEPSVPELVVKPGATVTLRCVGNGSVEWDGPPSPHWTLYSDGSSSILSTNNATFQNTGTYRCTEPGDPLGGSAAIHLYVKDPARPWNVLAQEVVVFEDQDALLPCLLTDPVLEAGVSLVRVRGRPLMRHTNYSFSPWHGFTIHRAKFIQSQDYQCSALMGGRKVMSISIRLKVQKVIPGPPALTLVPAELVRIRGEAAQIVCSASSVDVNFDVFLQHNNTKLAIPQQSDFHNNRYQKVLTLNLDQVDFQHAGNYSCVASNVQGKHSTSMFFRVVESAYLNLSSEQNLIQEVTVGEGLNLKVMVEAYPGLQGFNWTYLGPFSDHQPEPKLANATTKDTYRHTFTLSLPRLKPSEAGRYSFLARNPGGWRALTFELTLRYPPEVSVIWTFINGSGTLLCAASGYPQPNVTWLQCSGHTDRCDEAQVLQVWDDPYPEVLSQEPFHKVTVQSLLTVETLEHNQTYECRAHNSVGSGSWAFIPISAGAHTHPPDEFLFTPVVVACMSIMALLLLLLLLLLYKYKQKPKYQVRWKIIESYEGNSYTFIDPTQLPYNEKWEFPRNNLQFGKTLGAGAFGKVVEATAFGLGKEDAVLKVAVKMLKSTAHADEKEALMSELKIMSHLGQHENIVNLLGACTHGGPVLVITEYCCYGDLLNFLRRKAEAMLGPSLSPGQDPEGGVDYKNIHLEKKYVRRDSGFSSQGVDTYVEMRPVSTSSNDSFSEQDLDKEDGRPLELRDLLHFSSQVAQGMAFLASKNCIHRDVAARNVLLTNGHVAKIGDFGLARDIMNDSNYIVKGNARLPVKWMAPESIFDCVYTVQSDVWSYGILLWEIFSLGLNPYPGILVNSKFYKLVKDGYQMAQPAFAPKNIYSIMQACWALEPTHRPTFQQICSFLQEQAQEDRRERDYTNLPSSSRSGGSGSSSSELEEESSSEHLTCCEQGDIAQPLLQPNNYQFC
structure (smiles),measurement,setting,value
CCCNC(=O)c1cc(Oc2ccc3nc(N[C@@H]4CCCC[C@H]4O)sc3c2)ccn1,IC50,PDGFR-β,7700 nM
same,IC50,CSF-1R,8 nM
CCn1cc(-c2cc(Oc3ccc4nc(N[C@@H]5CCCC[C@H]5O)sc4c3)ccn2)cn1,IC50,PDGFR-β,1700 nM
same,IC50,CSF-1R,3 nM
CNC(=O)c1cc(Oc2ccc3nc(N[C@@H]4CCCC[C@H]4O)sc3c2)ccn1 [BLZ945],treated animals with reduced tumor size,[1]; 6 days of dosing,7 of 11
same,treated animals with tumor volume increases over 50%,"[1]; 6 days, of 11 animals",two
same,tumor size by MRI,[1]; 7 day trial,no increase in tumor size
same,Tumor Volume (Day −1 vs Day 6),"[1]; BLZ945, Day 7, tumors 4.5-40 mm^3",+0.68%
same,treated mice with reduction of at least 30% in tumor size,"[1]; large tumor cohort 48.7 to 132 mm^3, 6 days",6 of 18
same,tumor volume change,"[1]; large tumor cohort, 6 days",decreased in nearly all test animals
same,effects on tumor cell lines established from secondary mouse GBM neurospheres,[2],no differences
same,treated cohort still alive (symptom-free survival) at trial endpoint,"[3]; 200 mg/kg oral gavage daily, 26 weeks post-injection",64.4%
same,mice with grade II glioma among 4 treated mice sacrificed for histology,"[3]; 12 weeks, of 4 mice",one
same,tumor free mice among 4 treated mice sacrificed for histology,"[3]; 12 weeks, of 4 mice",3
same,treated animals either Grade II or tumor free,[3]; long-term trial,80%
same,treated animals with Grade III tumor,[3]; long-term trial,20%
same,tumor malignancy vs vehicle,[3]; long-term trial,significantly less malignant tumors
same,mice with no detectable lesions,[3]; mice alive at 26-week trial endpoint,56%
same,IC50,[4],~67 nM
same,formation of secondary neurospheres,[5],not altered
same,total number and size of neurospheres,[5]; 670 nM,unaffected
same,rate of population doubling of BMDM cells,[6]; 67 nM,same effect on this rate as absence of CSF-1 stimulation
same,macrophage survival,"[6]; 67 nM to 6700 nM, wild-type BMDMs",dramatically blocked macrophage survival
same,activity in Ambit kinase array,[7],lower than 50 % of control
same,IC50,[8],> 10000 nM
same,Apoptosis (% CC3+),"[9]; BLZ945, Day 3",+17-fold
same,Macrophages (% CD68+),"[9]; BLZ945, Day 3",+3-fold
same,Total DAPI+ Cells,"[9]; BLZ945, Day 3",−72%
same,Tumor Cells (% Olig2+),"[9]; BLZ945, Day 3",−27%
same,Apoptosis (% CC3+),"[9]; BLZ945, Day 7",+6-fold
same,Macrophages (% CD68+),"[9]; BLZ945, Day 7",+2-fold
same,Phagocytic Capacity,"[9]; BLZ945, Day 7",+5.0-fold
same,Total DAPI+ Cells,"[9]; BLZ945, Day 7",−80%
same,Tumor Cells (% Olig2+),"[9]; BLZ945, Day 7",−77%
same,Vasculature (CD31 MVD),"[9]; BLZ945, Day 7",−17%
same,Apoptosis (% CC3+),"[9]; BLZ945 Large, Day 3",+9-fold
same,Macrophages (% CD68+),"[9]; BLZ945 Large, Day 3",+2-fold
same,Phagocytic Capacity,"[9]; BLZ945 Large, Day 3",+7.1-fold
same,Total DAPI+ Cells,"[9]; BLZ945 Large, Day 3",−40%
same,Tumor Cells (% Olig2+),"[9]; BLZ945 Large, Day 3",−14%
same,Apoptosis (% CC3+),"[9]; BLZ945 Large, Day 7",+2-fold
same,Macrophages (% CD68+),"[9]; BLZ945 Large, Day 7",+4-fold
same,Phagocytic Capacity,"[9]; BLZ945 Large, Day 7",+6.0-fold
same,Total DAPI+ Cells,"[9]; BLZ945 Large, Day 7",−65%
same,Tumor Cells (% Olig2+),"[9]; BLZ945 Large, Day 7",−73%
same,Vasculature (CD31 MVD),"[9]; BLZ945 Large, Day 7",−67%
same,level of apoptosis (CC3+),[9]; earlier time point in particular,increase in apoptosis
same,Olig2 (tumor cell density),[9]; vs vehicle controls,significantly reduced
CCNC(=O)c1cc(Oc2ccc3nc(N[C@@H]4CCCC[C@H]4O)sc3c2)ccn1 [Ig-B],IC50,PDGFR-β,13900 nM
same,IC50,CSF-1R,6 nM
Cn1cc(-c2cc(Oc3ccc4nc(N[C@@H]5CCCC[C@H]5O)sc4c3)ccn2)cn1 [Ih-A],IC50,PDGFR-β,740 nM
same,IC50,CSF-1R,0.9 nM
CCCn1cc(-c2cc(Oc3ccc4nc(N[C@@H]5CCCC[C@H]5O)sc4c3)ccn2)cn1 [Ih-C],IC50,PDGFR-β,1500 nM
same,IC50,CSF-1R,7 nM
Cn1cc(-c2cc(Oc3ccc4nc(N[C@H]5CCCC[C@@H]5O)sc4c3)ccn2)cn1 [Ih-D],IC50,PDGFR-β,20 nM
same,IC50,CSF-1R,1 nM
